Experimental data taken from patent US12478595B1, “Organoselenium compound for treating cancer” (IMAM MOHAMMAD IBN SAUD ISLAMIC UNIVERSITY, priority 2024, dated 2025).

What was measured:
Assay type in all cases: cell-based
[1] = system: HN9 (human squamous cell carcinoma of the oral tongue); assay: growth inhibition of HN9 cancer cell line; settings: read-out: growth inhibition percentage
[2] = system: HuH7 (hepatocellular carcinoma); assay: growth inhibition of HuH7 cancer cell line; settings: Homo sapiens, Huh-7, read-out: growth inhibition percentage
[3] = system: HEPG2 (hepatocellular carcinoma); assay: growth inhibition of HEPG2 cancer cell line; settings: Homo sapiens, HepG2, read-out: growth inhibition percentage
[4] = system: A549 (non-small cell lung cancer); assay: growth inhibition of A549 cancer cell line; settings: Homo sapiens, A549, read-out: growth inhibition percentage
[5] = system: HCT116 (colorectal carcinoma); assay: growth inhibition of HCT116 cancer cell line; settings: Homo sapiens, HCT-116, read-out: growth inhibition percentage
A375 (melanoma cancer) = assay: growth inhibition of A375 cancer cell line; settings: Homo sapiens, A-375, read-out: growth inhibition percentage
[6] = system: normal oral epithelial cell line (OEC); assay: growth inhibition of OEC non-cancer cell line; settings: read-out: growth inhibition percentage

Molecule `C[Se]c1ccc(NC(=O)NCC2(C)CC(NC(=O)Nc3ccc([Se]C)cc3)CC(C)(C)C2)cc1` (stereo not shown) [HB188, 1-(4-(methylselanyl)phenyl)-3-((1,3,3-trimethyl-5-(3-(4-(methylselanyl)phenyl)ureido)cyclohexyl)methyl)urea] has an inhibition at 100 µg/mL [1] of 74%, an inhibition at 100 µg/mL [2] of 88.6% and an inhibition at 100 µg/mL [3] of 76.2%. For the same molecule, the inhibition at 100 µg/mL [4] was 74.4%, the inhibition at 100 µg/mL [5] was 85.3% and the inhibition at 100 µg/mL (A375 (melanoma cancer)) was 66.8%. The inhibition at 100 µg/mL [6] was 32.7%.
